Measurements taken from the kinase profiling compilation of Christmann-Franck et al. (2016).

How the values were obtained:
Test in all cases: KINOMEscan competition binding
Conditions in all cases: compound 1.0 µM
CDKL3 (human) = CDKL3 (human) (UniProt Q8IVW4)
ERBB2 (human) = ERBB2 (human) (UniProt P04626)
RPS6KA2 KD2 (human) = RPS6KA2 KD2 (human) (UniProt Q15349)
PRKCH (human) = PRKCH (human) (UniProt P24723)
GSK3B (human) = GSK3B (human) (UniProt P49841)
[1] = system: KIT (human), P10721 [A829P]
CDK7 (human) = CDK7 (human) (UniProt P50613)
AXL (human) = AXL (human) (UniProt P30530)
IRAK3 (human) = IRAK3 (human) (UniProt Q9Y616)
PAK7 (human) = PAK7 (human) (UniProt Q9P286)
SIK1 (human) = SIK1 (human) (UniProt P57059)
CRK2 (P.falciparum) = CRK2 (P.falciparum) (UniProt P61075)
SLK (human) = SLK (human) (UniProt Q9H2G2)
[2] = system: EIF2AK4 KD2 (human), Q9P2K8 [S808G]
CDKL2 (human) = CDKL2 (human) (UniProt Q92772)
AURKC (human) = AURKC (human) (UniProt Q9UQB9)
BRSK2 (human) = BRSK2 (human) (UniProt Q8IWQ3)
CDK9 (human) = CDK9 (human) (UniProt P50750)
EPHB6 (human) = EPHB6 (human) (UniProt O15197)
CLK2 (human) = CLK2 (human) (UniProt P49760)
SYK (human) = SYK (human) (UniProt P43405)
GRK1 (human) = GRK1 (human) (UniProt Q15835)
WNK1 (human) = WNK1 (human) (UniProt Q9H4A3)
NUAK2 (human) = NUAK2 (human) (UniProt Q9H093)
ACVR2A (human) = ACVR2A (human) (UniProt P27037)
NEK5 (human) = NEK5 (human) (UniProt Q6P3R8)
CLK1 (human) = CLK1 (human) (UniProt P49759)
HUNK (human) = HUNK (human) (UniProt P57058)
NEK1 (human) = NEK1 (human) (UniProt Q96PY6)
[3] = system: FLT3 (human), P36888 [D835Y]
TTK (human) = TTK (human) (UniProt P33981)
[4] = system: KIT (human), P10721 [V559D/V654A]
NEK11 (human) = NEK11 (human) (UniProt Q8NG66)
MAPK13 (human) = MAPK13 (human) (UniProt O15264)
MST4 (human) = MST4 (human) (UniProt Q9P289)
GSG2 (human) = GSG2 (human) (UniProt Q8TF76)
PLK2 (human) = PLK2 (human) (UniProt Q9NYY3)
RIPK1 (human) = RIPK1 (human) (UniProt Q13546)
CAMKK1 (human) = CAMKK1 (human) (UniProt Q8N5S9)

Sequence of PRKCH (human) (P24723 whole entry, looked up): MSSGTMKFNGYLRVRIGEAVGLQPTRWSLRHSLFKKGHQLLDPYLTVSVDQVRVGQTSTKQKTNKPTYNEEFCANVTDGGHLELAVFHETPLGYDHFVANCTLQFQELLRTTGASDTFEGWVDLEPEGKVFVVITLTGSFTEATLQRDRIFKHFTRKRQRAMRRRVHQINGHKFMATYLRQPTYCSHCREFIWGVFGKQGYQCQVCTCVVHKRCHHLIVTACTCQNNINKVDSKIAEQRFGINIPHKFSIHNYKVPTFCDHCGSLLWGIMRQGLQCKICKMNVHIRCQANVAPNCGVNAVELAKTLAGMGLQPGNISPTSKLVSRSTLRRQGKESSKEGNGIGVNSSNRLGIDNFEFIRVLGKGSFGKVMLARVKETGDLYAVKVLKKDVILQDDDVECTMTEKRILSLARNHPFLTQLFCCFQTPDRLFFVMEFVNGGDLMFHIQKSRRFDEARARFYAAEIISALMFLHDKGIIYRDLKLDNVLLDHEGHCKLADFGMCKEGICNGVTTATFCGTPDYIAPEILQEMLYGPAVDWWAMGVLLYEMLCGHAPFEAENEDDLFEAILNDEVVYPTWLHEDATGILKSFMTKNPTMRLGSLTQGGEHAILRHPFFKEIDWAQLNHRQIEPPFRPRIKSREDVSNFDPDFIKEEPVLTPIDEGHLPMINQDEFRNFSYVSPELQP
Sequence of EPHB6 (human) (O15197 whole entry, looked up): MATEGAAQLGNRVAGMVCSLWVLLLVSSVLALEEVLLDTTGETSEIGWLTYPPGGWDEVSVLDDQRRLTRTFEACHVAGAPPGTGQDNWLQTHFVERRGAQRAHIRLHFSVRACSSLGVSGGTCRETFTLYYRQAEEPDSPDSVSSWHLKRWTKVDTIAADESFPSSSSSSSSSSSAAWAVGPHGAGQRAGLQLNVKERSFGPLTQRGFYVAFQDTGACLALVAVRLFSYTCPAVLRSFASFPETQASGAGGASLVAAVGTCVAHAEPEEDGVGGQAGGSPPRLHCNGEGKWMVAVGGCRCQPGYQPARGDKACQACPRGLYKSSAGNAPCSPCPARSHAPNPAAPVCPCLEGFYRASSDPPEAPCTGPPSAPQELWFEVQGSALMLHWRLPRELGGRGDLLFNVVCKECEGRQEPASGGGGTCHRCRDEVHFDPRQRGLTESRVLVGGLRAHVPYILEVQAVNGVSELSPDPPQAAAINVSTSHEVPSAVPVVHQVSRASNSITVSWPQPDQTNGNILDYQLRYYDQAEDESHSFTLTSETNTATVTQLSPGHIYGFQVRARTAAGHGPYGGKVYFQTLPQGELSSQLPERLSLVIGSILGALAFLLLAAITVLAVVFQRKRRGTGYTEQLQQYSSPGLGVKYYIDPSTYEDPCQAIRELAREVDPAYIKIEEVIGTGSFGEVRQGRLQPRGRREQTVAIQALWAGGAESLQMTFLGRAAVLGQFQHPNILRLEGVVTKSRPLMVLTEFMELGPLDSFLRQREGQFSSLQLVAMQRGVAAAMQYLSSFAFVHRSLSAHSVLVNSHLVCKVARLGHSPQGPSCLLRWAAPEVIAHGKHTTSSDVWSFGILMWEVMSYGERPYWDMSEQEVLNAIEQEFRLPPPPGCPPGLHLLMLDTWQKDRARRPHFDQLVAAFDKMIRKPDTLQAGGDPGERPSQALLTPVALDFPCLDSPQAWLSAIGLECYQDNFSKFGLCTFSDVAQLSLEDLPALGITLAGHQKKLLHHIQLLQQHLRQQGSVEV
Sequence of WNK1 (human) (Q9H4A3 whole entry, looked up): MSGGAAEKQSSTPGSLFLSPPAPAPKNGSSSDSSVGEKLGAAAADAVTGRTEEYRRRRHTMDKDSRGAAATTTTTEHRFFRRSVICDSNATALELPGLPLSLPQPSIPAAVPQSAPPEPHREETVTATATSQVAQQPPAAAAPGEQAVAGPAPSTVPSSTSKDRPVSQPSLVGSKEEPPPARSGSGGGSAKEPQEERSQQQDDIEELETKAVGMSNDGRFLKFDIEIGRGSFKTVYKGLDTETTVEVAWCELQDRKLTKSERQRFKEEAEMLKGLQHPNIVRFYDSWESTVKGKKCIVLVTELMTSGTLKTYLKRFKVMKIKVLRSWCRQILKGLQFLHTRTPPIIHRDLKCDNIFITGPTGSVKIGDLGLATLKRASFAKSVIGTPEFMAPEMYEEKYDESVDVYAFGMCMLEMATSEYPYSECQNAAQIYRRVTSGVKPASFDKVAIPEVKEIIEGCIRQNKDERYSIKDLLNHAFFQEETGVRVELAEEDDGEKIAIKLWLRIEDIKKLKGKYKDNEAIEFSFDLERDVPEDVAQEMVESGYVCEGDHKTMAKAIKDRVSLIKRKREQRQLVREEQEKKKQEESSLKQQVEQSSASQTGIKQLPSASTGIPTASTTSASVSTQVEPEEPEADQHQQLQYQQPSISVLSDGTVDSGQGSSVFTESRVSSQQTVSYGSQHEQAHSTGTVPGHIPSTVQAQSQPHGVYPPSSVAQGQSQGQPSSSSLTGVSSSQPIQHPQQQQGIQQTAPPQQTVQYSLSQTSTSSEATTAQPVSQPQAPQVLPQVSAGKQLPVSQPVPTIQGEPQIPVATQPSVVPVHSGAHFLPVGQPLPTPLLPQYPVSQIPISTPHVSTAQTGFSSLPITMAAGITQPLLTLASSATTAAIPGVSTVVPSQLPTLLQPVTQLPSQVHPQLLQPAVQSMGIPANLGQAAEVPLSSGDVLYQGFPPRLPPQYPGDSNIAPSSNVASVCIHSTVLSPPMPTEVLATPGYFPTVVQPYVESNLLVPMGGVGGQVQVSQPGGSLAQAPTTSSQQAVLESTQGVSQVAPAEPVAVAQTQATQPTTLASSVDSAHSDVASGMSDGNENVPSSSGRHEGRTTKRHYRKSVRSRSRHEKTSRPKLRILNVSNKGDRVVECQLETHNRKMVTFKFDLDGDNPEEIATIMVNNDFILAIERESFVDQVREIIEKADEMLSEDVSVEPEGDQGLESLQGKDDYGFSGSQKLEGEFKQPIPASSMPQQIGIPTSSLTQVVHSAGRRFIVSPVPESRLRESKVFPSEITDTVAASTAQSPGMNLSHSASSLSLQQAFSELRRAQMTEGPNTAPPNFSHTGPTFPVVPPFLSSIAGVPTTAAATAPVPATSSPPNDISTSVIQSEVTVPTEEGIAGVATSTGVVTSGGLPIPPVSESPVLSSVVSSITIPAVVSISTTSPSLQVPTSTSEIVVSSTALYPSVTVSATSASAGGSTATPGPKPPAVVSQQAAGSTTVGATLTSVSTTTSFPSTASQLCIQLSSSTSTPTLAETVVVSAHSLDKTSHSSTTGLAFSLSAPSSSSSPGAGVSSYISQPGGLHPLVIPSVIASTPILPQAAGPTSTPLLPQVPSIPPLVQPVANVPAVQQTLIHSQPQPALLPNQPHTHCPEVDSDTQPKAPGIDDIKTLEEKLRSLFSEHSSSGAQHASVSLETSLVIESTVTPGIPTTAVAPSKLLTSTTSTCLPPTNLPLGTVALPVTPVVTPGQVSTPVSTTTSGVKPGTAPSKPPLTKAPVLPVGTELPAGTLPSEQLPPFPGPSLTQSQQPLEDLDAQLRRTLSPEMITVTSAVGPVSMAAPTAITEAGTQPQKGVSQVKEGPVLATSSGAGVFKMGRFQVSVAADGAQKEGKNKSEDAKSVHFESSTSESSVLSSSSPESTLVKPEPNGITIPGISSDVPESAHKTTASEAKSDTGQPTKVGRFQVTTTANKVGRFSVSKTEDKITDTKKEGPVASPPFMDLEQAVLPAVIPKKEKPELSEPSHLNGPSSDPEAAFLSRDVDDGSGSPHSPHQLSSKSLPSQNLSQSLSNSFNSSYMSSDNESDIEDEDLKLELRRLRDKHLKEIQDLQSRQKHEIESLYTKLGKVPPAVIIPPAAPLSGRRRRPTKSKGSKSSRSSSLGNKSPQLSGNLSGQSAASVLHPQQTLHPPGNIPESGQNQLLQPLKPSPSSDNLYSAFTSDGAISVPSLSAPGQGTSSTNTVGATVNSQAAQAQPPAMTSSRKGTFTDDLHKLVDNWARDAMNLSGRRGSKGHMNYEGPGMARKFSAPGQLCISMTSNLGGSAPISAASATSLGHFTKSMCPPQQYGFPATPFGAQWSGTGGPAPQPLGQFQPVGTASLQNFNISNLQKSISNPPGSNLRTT
Sequence of ACVR2A (human) (P27037 whole entry, looked up): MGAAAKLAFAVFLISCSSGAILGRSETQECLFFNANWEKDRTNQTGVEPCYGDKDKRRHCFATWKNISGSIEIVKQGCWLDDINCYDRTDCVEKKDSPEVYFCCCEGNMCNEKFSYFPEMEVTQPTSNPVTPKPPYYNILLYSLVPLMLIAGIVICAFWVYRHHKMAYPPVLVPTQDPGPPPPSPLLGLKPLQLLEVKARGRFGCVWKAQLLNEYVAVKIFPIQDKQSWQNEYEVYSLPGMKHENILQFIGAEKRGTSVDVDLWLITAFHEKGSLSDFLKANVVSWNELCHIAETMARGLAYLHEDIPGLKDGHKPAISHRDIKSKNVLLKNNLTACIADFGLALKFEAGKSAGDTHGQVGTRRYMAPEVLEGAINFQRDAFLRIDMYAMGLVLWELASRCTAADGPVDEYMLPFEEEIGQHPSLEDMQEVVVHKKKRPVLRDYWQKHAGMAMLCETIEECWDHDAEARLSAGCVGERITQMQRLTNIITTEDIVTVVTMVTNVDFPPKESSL
Sequence of CLK2 (human) (P49760 whole entry, looked up): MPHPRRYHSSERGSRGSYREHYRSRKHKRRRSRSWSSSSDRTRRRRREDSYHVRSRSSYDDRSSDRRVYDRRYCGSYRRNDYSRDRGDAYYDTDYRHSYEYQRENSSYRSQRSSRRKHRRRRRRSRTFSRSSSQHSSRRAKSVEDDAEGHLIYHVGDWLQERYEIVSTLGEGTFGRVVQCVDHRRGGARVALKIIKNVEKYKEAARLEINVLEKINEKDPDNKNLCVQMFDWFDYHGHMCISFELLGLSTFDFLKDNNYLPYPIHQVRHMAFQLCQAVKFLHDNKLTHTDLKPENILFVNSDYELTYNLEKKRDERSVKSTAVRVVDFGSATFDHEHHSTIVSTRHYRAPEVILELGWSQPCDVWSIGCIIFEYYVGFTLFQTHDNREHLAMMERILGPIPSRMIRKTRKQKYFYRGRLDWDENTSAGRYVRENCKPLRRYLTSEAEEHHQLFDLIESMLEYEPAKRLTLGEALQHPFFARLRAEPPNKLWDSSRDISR

CNc1nc(Nc2ccc(C(=O)N3CCOCC3)cc2OC)ncc1Cl
residual activity (CDKL3 (human)): 100%
kinase still bound, per cent of control (ERBB2 (human)): 100%
kinase still bound, per cent of control (RPS6KA2 KD2 (human)): 92%
kinase still bound, per cent of control (PRKCH (human)): 100%
kinase still bound, per cent of control (GSK3B (human)): 97%
kinase still bound, per cent of control [1]: 93%
residual activity (CDK7 (human)): 57%
kinase still bound, per cent of control (AXL (human)): 97%
kinase still bound, per cent of control (IRAK3 (human)): 88%
kinase still bound, per cent of control (PAK7 (human)): 62%
kinase still bound, per cent of control (SIK1 (human)): 100%
kinase still bound, per cent of control (CRK2 (P.falciparum)): 100%
kinase still bound, per cent of control (SLK (human)): 100%
kinase still bound, per cent of control [2]: 85%
residual activity (CDKL2 (human)): 100%
kinase still bound, per cent of control (AURKC (human)): 88%
kinase still bound, per cent of control (BRSK2 (human)): 51%
residual activity (CDK9 (human)): 100%
kinase still bound, per cent of control (EPHB6 (human)): 100%
kinase still bound, per cent of control (CLK2 (human)): 84%
kinase still bound, per cent of control (SYK (human)): 100%
kinase still bound, per cent of control (GRK1 (human)): 100%
kinase still bound, per cent of control (WNK1 (human)): 100%
kinase still bound, per cent of control (NUAK2 (human)): 100%
kinase still bound, per cent of control (ACVR2A (human)): 75%
kinase still bound, per cent of control (NEK5 (human)): 100%
kinase still bound, per cent of control (CLK1 (human)): 100%
kinase still bound, per cent of control (HUNK (human)): 98%
kinase still bound, per cent of control (NEK1 (human)): 91%
kinase still bound, per cent of control [3]: 72%
kinase still bound, per cent of control (TTK (human)): 20%
kinase still bound, per cent of control [4]: 100%
kinase still bound, per cent of control (NEK11 (human)): 100%
kinase still bound, per cent of control (MAPK13 (human)): 94%
kinase still bound, per cent of control (MST4 (human)): 100%
kinase still bound, per cent of control (GSG2 (human)): 74%
kinase still bound, per cent of control (PLK2 (human)): 100%
kinase still bound, per cent of control (RIPK1 (human)): 100%
kinase still bound, per cent of control (CAMKK1 (human)): 79%
